# Reference: publication PMC10906247, “From Functional Fatty Acids to Potent and Selective Natural-Product-Inspired Mimetics via Conformational Profiling” (ACS Central Science, 2024)
# Several values for one entry are separate records, joined by “and”; a condition that tells them apart may be missing. Equal entries are not always repeated. Where two headings read alike, the source gives them in different places.
# Columns and labels:
# [1] = target: T1, TLX ligand binding domain (Homo sapiens, UniProt Q9Y466); test: TLX ligand sensing assay (AlphaScreen, RIP140 NR box peptide recruitment); type: biochemical; conditions: for TLX max. efficacy: oleic acid = 100
# T1 construct: purchased NovAliX SAS, Strasbourg, France
# [2] = Metabolic stability / intrinsic clearance in cryopreserved human hepatocytes; conditions: for hepatocyte CLint at 1 µM / half-life at 1 µM: human
# Description: To gain insight into potential metabolic issues, a preliminary assessment of 1-E and 3-C in a metabolic stability assay utilizing human hepatocytes was conducted.
# 7.1. ADME-Tox: In Vitro Metabolism
# Intrinsic clearance (cr yopreserved hepatocytes, human)
# Note: Unit of Clint is µ L/min/mg for microsomes, S9 and UGT assa ys; µL/min/pmol for CYP assays; µ L/min/Million cells for hepatocyte assays […]
# 8.1. Experimental Conditions
# 8.1.1. ADME-Tox: In Vitro Metabolism
# 8.2. Analysis and expression of results
# 8.2.1. ADME-Tox: In Vitro Metabolism
# Intrinsic Clearance (microsomes, S9, cryopreserved hepatocytes, reco mbinant CYP, recombinant UGT) Metabolic stability, expressed as percent of the parent compound remaining , was calculated by comparing the peak area of the compound at the time point relative to that at time -0. The ha lf-life (T1/2) was estimated from the slope of the initial linear range of the logarithmic curve of compound remaining (%) vs. time, assu ming the first -order kinetics. The apparent intrinsic cleara nce (CLint, in µL/min/pmol, µL/min/mg or µL/min/Mcell ) was calculated according to the following formula: […]
# T1/2*(mg protein/µL or million cells/µL or pmol CYP iso zyme/µL)
# GPR120 = target: T2, GPR120 (Homo sapiens, UniProt Q5NUL3); test: PathHunter β-arrestin assay (Eurofins Discovery), GPR120; type: cell-based
# T2 sequence (Q5NUL3 1-361): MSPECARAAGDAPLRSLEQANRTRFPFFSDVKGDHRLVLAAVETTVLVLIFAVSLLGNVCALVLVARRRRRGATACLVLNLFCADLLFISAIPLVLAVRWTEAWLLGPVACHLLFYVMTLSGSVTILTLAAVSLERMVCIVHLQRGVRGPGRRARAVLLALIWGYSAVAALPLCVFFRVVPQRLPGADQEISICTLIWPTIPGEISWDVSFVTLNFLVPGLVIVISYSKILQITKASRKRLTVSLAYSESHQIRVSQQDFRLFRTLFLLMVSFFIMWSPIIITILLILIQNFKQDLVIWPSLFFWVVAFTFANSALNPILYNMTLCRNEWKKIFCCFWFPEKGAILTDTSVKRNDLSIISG
# Description: (§1) With these compounds in hand, attention was directed at evaluating their properties as ligands to GPR40, GPR120,[24] and TLX. Initial profiling experiments were conducted targeting the GPCR targets at a single concentration (15 μM) in a commercially available β-arrestin assay.
# (§2) Functional assays at GPR40 and GPR120 were conducted by Eurofins Discovery services using their PathHunter® b-Arrestin assay that monitors the activation of a GPCR in a homogenous, non-imaging assay format using a technology developed by DiscoverX called Enzyme Fragment Complementation (EFC) with b-galactosidase (b-Gal) as the functional reporter. b-Arrestin GPCR cell lines built on the principles of EFC are engineered to co-express the ProLinkTM (PK) tagged GPCR and the Enzyme Acceptor (EA) tagged b-Arrestin. Activation of the GPCR-PK induces b-Arrestin-EA recruitment, forcing complementation of the two b-galactosidase enzyme fragments (EA and PK). The resulting functional enzyme hydrolyzes substrate to generate chemiluminescent […]
# (§3) Additional information can be found at: www.eurofinsdiscovery.com/solution/b-arrestin Below are dose-response curves generated from Eurofins Discovery services for activity of ligands depicted in Figure 6B at GPR40 (FFAR1) and GPR120. […]
# GPR40 (FFAR1) = GPR40 (FFAR1) (Homo sapiens, UniProt O14842); test: PathHunter β-arrestin assay (Eurofins Discovery), GPR40; type: cell-based
# Description: as §1, §2, §3
# GPR40 = conditions: GW9508; read-out: GPR40 EC50 historical; cited from earlier work
# [3] = ALPHA normalized, supplement, read-out: TLX EC50 (dose-response curves)
# [4] = coactivator recruitment, read-out: TLX EC50
# [5] = cryopreserved human hepatocytes
# [6] = cryopreserved human hepatocytes, Half-life (mean), human hepatocytes, 1.0E-06 M
# [7] = cryopreserved human hepatocytes, Half-life, single replicates (1st, 2nd, 3rd), human hepatocytes, 1.0E-06 M
# [8] = dose-response, oleic acid = 100
# T1 sequence (Q9Y466 155-383 limits assumed): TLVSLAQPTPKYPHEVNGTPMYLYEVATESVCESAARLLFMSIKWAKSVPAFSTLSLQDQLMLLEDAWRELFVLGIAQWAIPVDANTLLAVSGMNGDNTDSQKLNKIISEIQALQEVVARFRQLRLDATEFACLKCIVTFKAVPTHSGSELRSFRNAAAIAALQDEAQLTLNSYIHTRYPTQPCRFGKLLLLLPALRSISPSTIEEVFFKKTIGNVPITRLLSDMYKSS
# GPR40 (FFAR1), sequence (O14842 whole entry): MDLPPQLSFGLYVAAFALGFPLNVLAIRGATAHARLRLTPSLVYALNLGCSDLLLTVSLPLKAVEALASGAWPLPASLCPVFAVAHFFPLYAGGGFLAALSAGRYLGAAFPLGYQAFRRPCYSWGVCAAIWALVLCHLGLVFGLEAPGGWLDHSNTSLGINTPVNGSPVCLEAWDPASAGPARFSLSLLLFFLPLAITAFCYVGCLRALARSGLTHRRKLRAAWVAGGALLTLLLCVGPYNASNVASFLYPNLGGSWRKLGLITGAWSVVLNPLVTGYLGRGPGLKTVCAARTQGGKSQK
compound,measurement,setting,value
CCCCC[C@@H](C)/C=C(/C)C/C(C)=C/[C@H](C)CCCCCC(=O)O [3-C],EC50,[1]; [3],0.818 µM
same,EC50,[1]; [4],0.8 µM
same,TLX max. efficacy,[1],66%
same,"Half-life, single replicates (1st, 2nd, 3rd)","[2]; human hepatocytes, 1.0E-06 M, listed as GCM/LEM 3-C",1.862 h and 1.848 h
same,hepatocyte CLint at 1 µM,[2]; [5],8.7 µL/min/1e6 cells
same,half-life at 1 µM,[2]; [6],1.9 h
same,half-life at 1 µM,[2]; [7],1.97 h
same,"% Compound Remaining, mean","[2]; incubation 30 minutes, 1.0E-06 M",96 % remaining
same,"% Compound Remaining, single replicates (1st, 2nd, 3rd)","[2]; incubation 30 minutes, 1.0E-06 M, listed as GCM/LEM 3-C",97.3 % remaining and 95.1 % remaining and 96.7 % remaining
same,"% Compound Remaining, mean","[2]; incubation 60 minutes, 1.0E-06 M",75 % remaining
same,"% Compound Remaining, single replicates (1st, 2nd, 3rd)","[2]; incubation 60 minutes, 1.0E-06 M, listed as GCM/LEM 3-C",72.5 % remaining and 71.7 % remaining and 79.8 % remaining
same,"% Compound Remaining, mean","[2]; incubation 90 minutes, 1.0E-06 M",57 % remaining
same,"% Compound Remaining, single replicates (1st, 2nd, 3rd)","[2]; incubation 90 minutes, 1.0E-06 M, listed as GCM/LEM 3-C",59.1 % remaining and 54.4 % remaining and 53.2 % remaining
same,"% Compound Remaining, mean","[2]; incubation 120 minutes, 1.0E-06 M",51 % remaining
same,"% Compound Remaining, single replicates (1st, 2nd, 3rd)","[2]; incubation 120 minutes, 1.0E-06 M, listed as GCM/LEM 3-C",53.3 % remaining and 52.1 % remaining and 48.9 % remaining
CCCCC[C@@H](C)/C=C(/C)C/C(C)=C/[C@@H](C)CCCCCC(=O)O [3-D],EC50,[1]; [3],1.17 µM
CCCCC[C@H](C)/C=C(/C)C/C(C)=C/[C@H](C)CCCCCC(=O)O [3-E],EC50,[1]; [3],0.959 µM
CCCCC[C@H](C)/C=C(/C)C/C(C)=C/[C@@H](C)CCCCCC(=O)O [3-F],EC50,[1]; [3],0.892 µM
same,EC50,[1]; [4],0.9 µM
same,TLX max. efficacy,[1],71%
CCCC/C=C(/C)C/C(C)=C/[C@H](C)CCCCCCCC(=O)O [4-A],EC50,[1]; [3],1.52 µM
CCCC/C=C(/C)C/C(C)=C/[C@@H](C)CCCCCCCC(=O)O [4-B],EC50,[1]; [3],2.97 µM
CCC[C@@H](C)/C=C(/C)C/C(C)=C/[C@H](C)CCCCCCCC(=O)O [4-C],activity against GPR120,"GPR120; from Figure 6A, 15 μM",inactive
same,EC50,[1]; [3],1.53 µM
CCC[C@@H](C)/C=C(/C)C/C(C)=C/[C@@H](C)CCCCCCCC(=O)O [4-D],EC50,[1]; [3],1.57 µM
CCC[C@H](C)/C=C(/C)C/C(C)=C/[C@H](C)CCCCCCCC(=O)O [4-E],EC50,[1]; [3],1.32 µM
CCC[C@H](C)/C=C(/C)C/C(C)=C/[C@@H](C)CCCCCCCC(=O)O [4-F],EC50,[1]; [3],1.89 µM
"CCN(CC)CCN1C(=O)CN=C(c2ccccc2F)c2cc(Cl)ccc21 [Flurazepam, reference compound]","Half-life, single replicates (1st, 2nd, 3rd)","[2]; human hepatocytes, 1.0E-06 M",0.797 h and 0.895 h
same,hepatocyte CLint at 1 µM,[2]; hepatocytes,19.3 µL/min/1e6 cells
same,half-life at 1 µM,"[2]; hepatocytes, Half-life (mean), human hepatocytes, 1.0E-06 M",0.85 h
same,half-life at 1 µM,"[2]; hepatocytes, Half-life, single replicates (1st, 2nd, 3rd), human hepatocytes, 1.0E-06 M",0.882 h
"O=C(O)CCc1ccc(NCc2cccc(Oc3ccccc3)c2)cc1 [GW9508, reference compound]",EC50,"GPR40 (FFAR1); dose-response, β-arrestin assay, read-out: GPR40 EC50 measured",1 µM
same,GPR40 max. efficacy,GPR40 (FFAR1); [8],229%
same,EC50,"GPR40 (FFAR1); three independent assays behind the average, read-out: GPR40 EC50, independent assays",1.5 µM and 0.98 µM and 0.7 µM
same,GPR120 max. efficacy,GPR120; [8],87%
same,EC50,GPR40,0.047 µM
"O=c1cc(C(F)(F)F)c2ccc(O)cc2o1 [HFC, reference compound]",CLint,"[2]; human hepatocytes, 1.0E-06 M",47.3 μL/min/million cells
same,Half-life (mean),"[2]; human hepatocytes, 1.0E-06 M",0.35 h
same,"Half-life, single replicates (1st, 2nd, 3rd)","[2]; human hepatocytes, 1.0E-06 M",0.348 h and 0.352 h and 0.347 h
"C=CCN1CC[C@]23c4c5ccc(O)c4O[C@H]2C(=O)CC[C@@]3(O)[C@H]1C5 [Naloxone, reference compound]","Half-life, single replicates (1st, 2nd, 3rd)","[2]; human hepatocytes, 1.0E-06 M",1.47 h and 1.852 h
same,hepatocyte CLint at 1 µM,[2]; [5],10.1 µL/min/1e6 cells
same,half-life at 1 µM,[2]; [6],1.65 h
same,half-life at 1 µM,[2]; [7],1.61 h
"CC(C)NCC(O)COc1cccc2ccccc12 (stereo not drawn) [Propanolol, Propranolol, reference compound]",half-life at 1 µM,[2]; [6],3.12 h
same,half-life at 1 µM,[2]; [7],3.25 h
